Tests used:
[1] = Brain tissue binding assay; assay type: in vitro ADME, mouse; settings: brain homogenate, 2 µM compound
Experimental: The […]
KIAM = (tr – t0) / t0; Pm = (KIAM / MW4) x 1010
Compounds with a Pm >0.85 are predicted to be BBB permeable (CNS+) at pH 7.4.
Brain Tissue Binding Assay
Brain tissue was homogenized in PBS (pH 7.4) (1: 3 weight(mg)/volume(µL)) and the protein concentration determined using the Micro BCA™ Pr otein Assay Kit (Thermo Fisher Scientific, Cat#23235). Brain homogenate was diluted to 20 mg/mL in PBS (pH 7.4) and added to Slide-A-Lyzer™ MINI Dialysis Devices, 10K MWCO dialysis cups (Thermo Fisher Scientific, Cat#PI88401) in a 48-well plate containing PBS (500 µL; pH 7.4). 1 µL of 1 mM compound was added to the brain homogenate (final concentration: 2 µM compound, 0.5% DMSO) and incubated on a rocker for 4.5 hours at 37 °C. 50 µL of brain homogenate (within the dialysis cup) and PBS (within the 48-well plate) were transferred to new microcentrifuge tubes containing 200 µL of quenching reagent (100% acetonitrile) containing internal standard. Solutions were clarified by centrifugation (16,000 x g, 5 min) and the supernatants were transferred to new tubes and lyophilized. Samples were reconstituted in 100 µL of 50/50/0.1 (Water/Acetonitrile/Formic Acid) prior to analysis via LC-MS/MS.
The % of the unbound drug was calculated using the following equation: fubound = [normalized peak area in buffer side / normalized peak area in brain side] x 100

[2] = PK of FAH65E(-) in ApoE4-TR:5xFAD mice; assay type: in vivo, mouse; settings: 30 mkd oral, from brain Fu
Experimental: A PK/PD study of FAH65E(-) hydrochloride was performed using ApoE4-TR:5xFAD mice that express APOE4 under the control of the endogenous mouse APOE promoter crossed to 5xFAD mice (Tg6799) which co-express five FAD mutations (APP K670 N/M671L + I716V + V717I and PS1 M146L + L286V) under the control of the neuron-specific mouse Thy-1 promoter. The resulting mice, on a 97 % C57Bl/6J and 3 % SJL background, are homozygous for APOE4 and hemizygous for the 5XFAD transgenes. Both male and female mice 6–8 months of age were used. Mice received two doses (a.m. and p.m.) of 30 mg/kg FAH65E(-) by oral gavage on day 1; on day 2, after a single dose (a.m.) mice were euthanized at 1, 2, 4 and 6 h, n = 3 per time point. FAH65 and sAPPβ levels in brain were determined in brain tissue by LC-MS (see Supplementary Methods) and ELISA , respectively.

SMILES: Cc1cc(C2(c3cccc(-c4cncnc4)c3)N=C(N)N(C)C2=O)ccc1OC(F)F (centres unmarked) [FAH65]
- Brain tissue binding, funbound [1]: 3.1%
- Unbound brain concentration at Cmax [2]: 9.6 nM

Source: PMC12491701, “Discovery of an APP-selective BACE1 inhibitor for Alzheimer's disease” (Neurotherapeutics, 2025)
